Results taken from ChEMBL document CHEMBL1201862, “PubChem BioAssay data set” (2004).
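Five concentrations, 48 hours, 96-well plates. GI50 = concentration required for 50% inhibition of growth.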 Active and inactive are the calls of the source. Cut-off read from the data, not from the text of the source: active = GI50 up to about 1.1 µM and inactive = higher.

Legend:
Assay in all cases: growth of human tumour cells (NCI), 48 h
[1] = tested on: ACHN
[2] = tested on: CAKI-1
[3] = tested on: CCRF-CEM
[4] = tested on: COLO 205
[5] = tested on: HCT-116
[6] = tested on: KM12
[7] = tested on: LOX IMVI
[8] = tested on: MDA-MB-231
[9] = tested on: MDA-MB-435
[10] = tested on: Malme-3M
[11] = tested on: NCI-H23
[12] = tested on: NCI-H522
[13] = tested on: NCI/ADR-RES
[14] = tested on: OVCAR-3
[15] = tested on: OVCAR-8
[16] = tested on: PC-3
[17] = tested on: RPMI-8226
[18] = tested on: SF-268
[19] = tested on: T47D
[20] = tested on: UO-31

| Structure (SMILES) | GI50 [1] | GI50 [2] | GI50 [3] | GI50 [4] | GI50 [5] | GI50 [6] | GI50 [7] | GI50 [8] | GI50 [9] | GI50 [10] | GI50 [11] | GI50 [12] | GI50 [13] | GI50 [14] | GI50 [15] | GI50 [16] | GI50 [17] | GI50 [18] | GI50 [19] | GI50 [20] |
| --- | --- | --- | --- | --- | --- | --- | --- | --- | --- | --- | --- | --- | --- | --- | --- | --- | --- | --- | --- | --- |
| CN1CN(c2ccccc2)C2(CCN(Cc3csc4ccccc34)CC2)C1=O | 17.6 µM (inactive) | 7.45 µM (inactive) | 17.5 µM (inactive) | 11.1 µM (inactive) | 5.35 µM (inactive) | 11.5 µM (inactive) | 11.8 µM (inactive) | > 10 µM (inactive) | 14.3 µM (inactive) | 17.2 µM (inactive) | 6.44 µM (inactive) | 9.23 µM (inactive) | 8.97 µM (inactive) | 8.85 µM (inactive) | 16.2 µM (inactive) | 9.27 µM (inactive) | 2.16 µM (inactive) | 22.3 µM (inactive) | 5.11 µM (inactive) | 3.71 µM (inactive) |
| c1ccc(CSc2nnc3c4ccccc4c4ccccc4c3n2)cc1 | 61 µM (inactive) | 78.9 µM (inactive) | 27.7 µM (inactive) | > 100 µM (inactive) | > 82.4 µM (inactive) | > 100 µM (inactive) | 62.7 µM (inactive) | 35.2 µM (inactive) | 58.1 µM (inactive) | 86.1 µM (inactive) | 48.2 µM (inactive) | 33.2 µM (inactive) | 60.5 µM (inactive) | 21.7 µM (inactive) | 35.5 µM (inactive) | 64.9 µM (inactive) | 48 µM (inactive) | 19.1 µM (inactive) | 34.1 µM (inactive) | > 57.7 µM (inactive) |
| COc1cc2c(/C=C3/C(=O)Nc4ccc(O)cc43)c(Cl)[nH]c2cc1C | 0.108 µM (active) | 0.0893 µM (active) | 0.0462 µM (active) | 0.192 µM (active) | 0.0897 µM (active) | 0.045 µM (active) | 0.0775 µM (active) | 0.283 µM (active) | < 0.0137 µM (active) | 0.0398 µM (active) | 0.23 µM (active) | 0.146 µM (active) | 0.249 µM (active) | 0.026 µM (active) | 0.281 µM (active) | 0.359 µM (active) | 0.275 µM (active) | 0.927 µM (active) | 0.0462 µM (active) | 0.728 µM (active) |
| O=C(c1ccsc1)c1nccc2c1cnc1ccccc12 | > 100 µM (inactive) | > 100 µM (inactive) | > 100 µM (inactive) | > 100 µM (inactive) | 62.1 µM (inactive) | > 100 µM (inactive) | > 100 µM (inactive) | 61 µM (inactive) | > 100 µM (inactive) | 65.5 µM (inactive) | 45.3 µM (inactive) | 12.7 µM (inactive) | > 100 µM (inactive) | > 100 µM (inactive) | > 100 µM (inactive) | > 100 µM (inactive) | > 100 µM (inactive) | 77.3 µM (inactive) | > 100 µM (inactive) | 6.55 µM (inactive) |
| CCOC(=O)C(CO)c1nc2c([nH]c1=O)c(=O)n(C)c(=O)n2C (stereo not given) | > 100 µM (inactive) | > 100 µM (inactive) | > 100 µM (inactive) | > 100 µM (inactive) | > 100 µM (inactive) | > 100 µM (inactive) | > 100 µM (inactive) | > 100 µM (inactive) | > 100 µM (inactive) | > 100 µM (inactive) | > 100 µM (inactive) | > 100 µM (inactive) | > 100 µM (inactive) | > 100 µM (inactive) | > 100 µM (inactive) | > 100 µM (inactive) | > 100 µM (inactive) | > 100 µM (inactive) | 13.7 µM (inactive) | > 100 µM (inactive) |
| CC(C)C(/C=C/c1ccc(Cl)cc1)=N\NC(=O)N/N=C(/C=C/c1ccc(Cl)cc1)C(C)C | 29.2 µM (inactive) | 18.5 µM (inactive) | 46.5 µM (inactive) | 45.3 µM (inactive) | 20.2 µM (inactive) | > 100 µM (inactive) | > 10 µM (inactive) | 22.3 µM (inactive) | 30.1 µM (inactive) | 58.5 µM (inactive) | 21.9 µM (inactive) | > 10 µM (inactive) | 26.7 µM (inactive) | 19.6 µM (inactive) | 19.4 µM (inactive) | > 100 µM (inactive) | > 100 µM (inactive) | 20 µM (inactive) | 40.8 µM (inactive) | 40.9 µM (inactive) |
| Cc1cn(C2CC(O)C(CO[Si](C)(C)C(C)(C)C)OC2OC(C)C)c(=O)[nH]c1=O (stereo not given) | 50.5 µM (inactive) | 55.2 µM (inactive) | 36.1 µM (inactive) | 21.5 µM (inactive) | 16.5 µM (inactive) | 49.5 µM (inactive) | 18.5 µM (inactive) | 35.2 µM (inactive) | 60 µM (inactive) | 44.5 µM (inactive) | 39.6 µM (inactive) | 30.2 µM (inactive) | 43.1 µM (inactive) | 20.6 µM (inactive) | 33.5 µM (inactive) | 33.6 µM (inactive) | 37.7 µM (inactive) | 51.3 µM (inactive) | 72.3 µM (inactive) | 44.8 µM (inactive) |
| O=C(SC1=NCCN1)c1cccc2ccccc12 | 66.8 µM (inactive) | > 100 µM (inactive) | 21.8 µM (inactive) | > 100 µM (inactive) | 41 µM (inactive) | 37 µM (inactive) | > 100 µM (inactive) | > 100 µM (inactive) | 53.5 µM (inactive) | 78.9 µM (inactive) | 63.5 µM (inactive) | 19.5 µM (inactive) | 31.6 µM (inactive) | 56.9 µM (inactive) | 71.9 µM (inactive) | 42 µM (inactive) | 27.8 µM (inactive) | > 100 µM (inactive) | 44.9 µM (inactive) | 42.9 µM (inactive) |
| CCOC(=O)N1CCN(c2ccc3c(C)cc(C)nc3n2)CC1 | > 100 µM (inactive) | > 100 µM (inactive) | > 100 µM (inactive) | > 100 µM (inactive) | > 100 µM (inactive) | > 100 µM (inactive) | > 100 µM (inactive) | > 100 µM (inactive) | > 100 µM (inactive) | > 100 µM (inactive) | > 100 µM (inactive) | > 100 µM (inactive) | > 100 µM (inactive) | > 100 µM (inactive) | > 100 µM (inactive) | > 100 µM (inactive) | > 100 µM (inactive) | > 100 µM (inactive) | > 100 µM (inactive) | > 100 µM (inactive) |
| O=C(O)COc1cc(-c2ccccc2)nc2ccc(F)cc12 | > 100 µM (inactive) | > 100 µM (inactive) | > 100 µM (inactive) | > 100 µM (inactive) | > 100 µM (inactive) | > 100 µM (inactive) | > 100 µM (inactive) | > 100 µM (inactive) | > 100 µM (inactive) | > 100 µM (inactive) | > 100 µM (inactive) | 58.1 µM (inactive) | > 100 µM (inactive) | > 100 µM (inactive) | > 100 µM (inactive) | > 100 µM (inactive) | > 100 µM (inactive) | > 100 µM (inactive) | > 100 µM (inactive) | 70 µM (inactive) |
| N#Cc1c(C#N)c(-c2cccc([N+](=O)[O-])c2)n(-c2ccccc2)c1N | > 100 µM (inactive) | 44.4 µM (inactive) | > 100 µM (inactive) | > 100 µM (inactive) | > 100 µM (inactive) | > 100 µM (inactive) | > 100 µM (inactive) | 38.7 µM (inactive) | > 100 µM (inactive) | > 100 µM (inactive) | > 100 µM (inactive) | > 100 µM (inactive) | > 100 µM (inactive) | > 100 µM (inactive) | 99.3 µM (inactive) | > 100 µM (inactive) | > 100 µM (inactive) | 88.7 µM (inactive) | > 100 µM (inactive) | > 100 µM (inactive) |
| CC(=O)NNc1nc(C)c(C(/C=C/c2cccc([N+](=O)[O-])c2)=N/NC(=S)NN)s1 | > 100 µM (inactive) | > 100 µM (inactive) | > 100 µM (inactive) | > 100 µM (inactive) | > 100 µM (inactive) | > 100 µM (inactive) | > 100 µM (inactive) | > 100 µM (inactive) | > 100 µM (inactive) | > 100 µM (inactive) | > 100 µM (inactive) | > 100 µM (inactive) | > 100 µM (inactive) | > 100 µM (inactive) | > 100 µM (inactive) | > 100 µM (inactive) | > 100 µM (inactive) | > 100 µM (inactive) | > 100 µM (inactive) | > 100 µM (inactive) |
| O=C1CCCNn2c(nc3ncccc3c2=O)N1 | > 100 µM (inactive) | > 100 µM (inactive) | > 100 µM (inactive) | > 100 µM (inactive) | > 100 µM (inactive) | 78.7 µM (inactive) | > 100 µM (inactive) | > 100 µM (inactive) | > 100 µM (inactive) | > 100 µM (inactive) | > 100 µM (inactive) | > 100 µM (inactive) | > 100 µM (inactive) | > 100 µM (inactive) | > 100 µM (inactive) | > 100 µM (inactive) | > 100 µM (inactive) | > 100 µM (inactive) | > 100 µM (inactive) | > 100 µM (inactive) |
| C[N+](C)(C)CC(=O)N/N=C(\C(=O)NC1=C(Cl)C(=O)c2ccccc2C1=O)C(C#N)c1nc(-c2ccc([N+](=O)[O-])cc2)cs1 (stereo not given) | 10.6 µM (inactive) | 26.2 µM (inactive) | 8.28 µM (inactive) | 17.2 µM (inactive) | 5.78 µM (inactive) | 14.6 µM (inactive) | 1.69 µM (inactive) | 10.3 µM (inactive) | 1.87 µM (inactive) | 1.86 µM (inactive) | 2.51 µM (inactive) | 7.31 µM (inactive) | 11.7 µM (inactive) | 1.02 µM (active) | 9.35 µM (inactive) | 6.89 µM (inactive) | 6.53 µM (inactive) | 12.3 µM (inactive) | 5.85 µM (inactive) | 15.6 µM (inactive) |
